From ChEMBL document CHEMBL3885861, “Open TG-GATES”

Organism: Rattus norvegicus
Assay: Open TG-GATES - Regimen: Single
Type: toxicity, organism-based, Sprague-Dawley
Design: regimen Single, gender Male, age 6 weeks
Conditions: in vivo, po, 300 mg/kg, route gavage, dose level High; for APTT / Bas / Eos / Fbg / Hb / Ht / Lym / MCH / MCHC / MCV / Mono / Neu / PT / Plat / RBC / Ret / WBC: tissue Blood; for KIDNEY_L / KIDNEY_R / KIDNEY_TOTAL: tissue Kidney; for LIVER: tissue Liver; for A/G / ALP / ALT / AST / BUN / CRE / Ca / Cl / DBIL / GLC / IP / K / LDH / Na / PL / RALB / TBIL / TC / TG / TP / gamma-GTP: tissue Plasma

For `CC[C@H]1[C@@H]2C[C@H]3[C@@H]4N(C)c5ccccc5[C@]45C[C@@H]([C@@H]2[C@H]5O)N3[C@@H]1O` [AJMALINE], the TERMINAL_BW (3 h) was 194.9 g, the APTT (3 h) was 17 s and the Bas (3 h) was 0%. For the same compound, the Eos (3 h) was 0.6%, the Fbg (3 h) was 201.8 mg/dL and the Hb (3 h) was 13 g/dL. It also gave a Ht (3 h) of 39.5%, a Lym (3 h) of 80.6% and an MCH (3 h) of 21.3 pg. It also gave an MCHC (3 h) of 32.8%, an MCV (3 h) of 64.8 fL and a Mono (3 h) of 6.4%. It also gave a Neu (3 h) of 12.6%, a PT (3 h) of 11.9 s and a Plat (3 h) of 106.2 x10_4/uL. It also gave an RBC (3 h) of 611.2 x10_4/ul, a Ret (3 h) of 11.5% and a WBC (3 h) of 94.5 x10_2/uL. It also gave a KIDNEY_L (3 h) of 0.9 g, a KIDNEY_R (3 h) of 0.9 g and a KIDNEY_TOTAL (3 h) of 1.9 g. The LIVER (3 h) was 9.2 g, the A/G (3 h) was 2.3 and the ALP (3 h) was 955.4 IU/L. For the same compound, the ALT (3 h) was 34 IU/L, the AST (3 h) was 64.6 IU/L and the BUN (3 h) was 13.2 mg/dL. It also gave a CRE (3 h) of 0.4 mg/dL, a Ca (3 h) of 10.6 mg/dL and a Cl (3 h) of 103.6 meq/L. For the same compound, the DBIL (3 h) was 0.018 mg/dL, the GLC (3 h) was 184.6 mg/dL and the IP (3 h) was 8.9 mg/dL. The K (3 h) was 4.4 meq/L, the LDH (3 h) was 108.4 IU/L and the Na (3 h) was 137.8 meq/L. For the same compound, the PL (3 h) was 135 mg/dL, the RALB (3 h) was 3.7 g/dL and the TBIL (3 h) was 0.4 mg/dL. It also gave a TC (3 h) of 71.4 mg/dL, a TG (3 h) of 57.8 mg/dL and a TP (3 h) of 5.3 g/dL. For the same compound, the gamma-GTP (3 h) was 1 IU/L, the TERMINAL_BW (6 h) was 195.8 g and the APTT (6 h) was 17.3 s. It also gave a Bas (6 h) of 0%, an Eos (6 h) of 1.2% and a Fbg (6 h) of 211.8 mg/dL. For the same compound, the Hb (6 h) was 13.1 g/dL, the Ht (6 h) was 40% and the Lym (6 h) was 69.2%. It also gave an MCH (6 h) of 21.6 pg, an MCHC (6 h) of 32.7% and an MCV (6 h) of 66 fL. The Mono (6 h) was 8.8%, the Neu (6 h) was 20.6% and the PT (6 h) was 11.8 s. For the same compound, the Plat (6 h) was 109.7 x10_4/uL, the RBC (6 h) was 607 x10_4/ul and the Ret (6 h) was 11.3%. It also gave a WBC (6 h) of 82.2 x10_2/uL, a KIDNEY_L (6 h) of 0.9 g and a KIDNEY_R (6 h) of 1 g. It also gave a KIDNEY_TOTAL (6 h) of 1.9 g, an LIVER (6 h) of 9 g and an A/G (6 h) of 2.1. The ALP (6 h) was 795 IU/L, the ALT (6 h) was 32.2 IU/L and the AST (6 h) was 64.6 IU/L. The BUN (6 h) was 10.4 mg/dL, the CRE (6 h) was 0.5 mg/dL and the Ca (6 h) was 10.8 mg/dL. For the same compound, the Cl (6 h) was 102.6 meq/L, the DBIL (6 h) was 0.062 mg/dL and the GLC (6 h) was 184.6 mg/dL. For the same compound, the IP (6 h) was 9.2 mg/dL, the K (6 h) was 4.6 meq/L and the LDH (6 h) was 93.2 IU/L. It also gave a Na (6 h) of 137.2 meq/L, a PL (6 h) of 142.6 mg/dL and an RALB (6 h) of 3.7 g/dL. For the same compound, the TBIL (6 h) was 0.4 mg/dL, the TC (6 h) was 77.8 mg/dL and the TG (6 h) was 40.2 mg/dL. For the same compound, the TP (6 h) was 5.4 g/dL, the gamma-GTP (6 h) was 1.8 IU/L and the TERMINAL_BW (9 h) was 189 g. It also gave an APTT (9 h) of 16.4 s, a Bas (9 h) of 0% and an Eos (9 h) of 1.4%. The Fbg (9 h) was 215.8 mg/dL, the Hb (9 h) was 13.2 g/dL and the Ht (9 h) was 40.1%. It also gave a Lym (9 h) of 72.8%, an MCH (9 h) of 21.2 pg and an MCHC (9 h) of 32.9%. The MCV (9 h) was 64.4 fL, the Mono (9 h) was 8% and the Neu (9 h) was 18.4%. For the same compound, the PT (9 h) was 11.9 s, the Plat (9 h) was 117.8 x10_4/uL and the RBC (9 h) was 623.8 x10_4/ul. For the same compound, the Ret (9 h) was 11.7%, the WBC (9 h) was 70.8 x10_2/uL and the KIDNEY_L (9 h) was 0.9 g. The KIDNEY_R (9 h) was 0.9 g, the KIDNEY_TOTAL (9 h) was 1.7 g and the LIVER (9 h) was 8.5 g. The A/G (9 h) was 2.3, the ALP (9 h) was 780.6 IU/L and the ALT (9 h) was 31 IU/L. The AST (9 h) was 62.8 IU/L, the BUN (9 h) was 13.2 mg/dL and the CRE (9 h) was 0.6 mg/dL. For the same compound, the Ca (9 h) was 10.5 mg/dL, the Cl (9 h) was 103.6 meq/L and the DBIL (9 h) was 0.078 mg/dL. For the same compound, the GLC (9 h) was 178 mg/dL, the IP (9 h) was 10.1 mg/dL and the K (9 h) was 5 meq/L. For the same compound, the LDH (9 h) was 113.8 IU/L, the Na (9 h) was 138.4 meq/L and the PL (9 h) was 146.4 mg/dL. For the same compound, the RALB (9 h) was 3.8 g/dL, the TBIL (9 h) was 0.4 mg/dL and the TC (9 h) was 87.8 mg/dL. The TG (9 h) was 50 mg/dL, the TP (9 h) was 5.4 g/dL and the gamma-GTP (9 h) was 1 IU/L. For the same compound, the TERMINAL_BW (24 h) was 206.4 g, the APTT (24 h) was 16 s and the Bas (24 h) was 0%. The Eos (24 h) was 1%, the Fbg (24 h) was 199.4 mg/dL and the Hb (24 h) was 13 g/dL. The Ht (24 h) was 39.3%, the Lym (24 h) was 79.8% and the MCH (24 h) was 21.6 pg. It also gave an MCHC (24 h) of 33%, an MCV (24 h) of 65.5 fL and a Mono (24 h) of 6.8%. It also gave a Neu (24 h) of 12.6%, a PT (24 h) of 11.8 s and a Plat (24 h) of 108 x10_4/uL. The RBC (24 h) was 599.6 x10_4/ul, the Ret (24 h) was 9.9% and the WBC (24 h) was 77.5 x10_2/uL. The KIDNEY_L (24 h) was 1 g, the KIDNEY_R (24 h) was 1 g and the KIDNEY_TOTAL (24 h) was 1.9 g. It also gave an LIVER (24 h) of 9.9 g, an A/G (24 h) of 2.2 and an ALP (24 h) of 860.6 IU/L. The ALT (24 h) was 37.4 IU/L, the AST (24 h) was 69 IU/L and the BUN (24 h) was 18 mg/dL. For the same compound, the CRE (24 h) was 0.6 mg/dL, the Ca (24 h) was 11 mg/dL and the Cl (24 h) was 101.4 meq/L. It also gave a DBIL (24 h) of 0.03 mg/dL, a GLC (24 h) of 196.4 mg/dL and an IP (24 h) of 9.1 mg/dL. For the same compound, the K (24 h) was 4.6 meq/L, the LDH (24 h) was 109.4 IU/L and the Na (24 h) was 139.4 meq/L. The PL (24 h) was 149.4 mg/dL, the RALB (24 h) was 3.7 g/dL and the TBIL (24 h) was 0.4 mg/dL. The TC (24 h) was 83.8 mg/dL, the TG (24 h) was 99 mg/dL and the TP (24 h) was 5.3 g/dL. For the same compound, the gamma-GTP (24 h) was 0.8 IU/L.
